According to patent US5593985A, “Cephalosporin compounds” (priority 1994, dated 1997):
≈ marks a conversion by molar mass, not a printed value. Like-named read-outs stand apart in the source and are kept apart here.

How the values were obtained:
[1] = test system: Streptococcus pyogenes A 77; test: MIC, standard strain 2; format: cell-based; details: read-out: Minimal Inhibitory Concentration(MIC)
Experimental: (§1) In order to illustrate antibiotic effectiveness of the compounds of the present invention, the minimal inhibitory concentrations (MIC's) of the representative compounds were determined against standard strains and compared with ceftazidime and cefpirome, which were used as control compounds.
(§2) The MIC values were taken by employing a two-fold dilution method: that is, two-fold serial dilutions of each of the test compounds were made from initial concentration of […]; each 1.5 ml of them was dispersed in 13.5 ml of Muller Hinton agar medium to adjust to […]; the standard test strain which had the concentration of 10^7 CFU/ml was inoculated by medium;and these were incubated at 37° C. for 18 hours.
(§3) The test used twenty kinds of standard test strains which induced urinary tract infections, respiratory organ infections, skin soft tissue infections, plasma infections, gastrointestinal infections, central nervous system infections, most of which produce β-lactamase. The standard test strains used are as follows:
2. Streptococcus pyogenes A 77

Escherichia coli 1507 E = test: MIC, standard strain 11; format: cell-based; details: read-out: Minimal Inhibitory Concentration(MIC)
Experimental: as §1, §2
(§4) The test used twenty kinds of standard test strains which induced urinary tract infections, respiratory organ infections, skin soft tissue infections, plasma infections, gastrointestinal infections, central nervous system infections, most of which produce β-lactamase.

Streptococcus faecium 8b = test: MIC, standard strain 3; format: cell-based; details: Enterococcus faecium, read-out: Minimal Inhibitory Concentration(MIC)
Experimental: as §1, §2, §3
3. Streptococcus faecium 8b

[2] = test system: Streptococcus pyogenes A 308; test: MIC, standard strain 1; format: cell-based; details: A308, 18 h, read-out: Minimal Inhibitory Concentration(MIC)
Experimental: as §1, §2, §3
1. Streptococcus pyogenes A 308

Escherichia coli TEM = test: MIC, standard strain 10; format: cell-based; details: 18 h, read-out: Minimal Inhibitory Concentration(MIC)
Experimental: as §1, §2, §4

[3] = test system: Enterobacter cloacae P 99; test: MIC, standard strain 19; format: cell-based; details: P99, 18 h, read-out: Minimal Inhibitory Concentration(MIC)
Experimental: as §1, §2, §3
19. Enterobacter cloacae P 99

[4] = test system: Pseudomonas aeruginosa 1771; test: MIC, standard strain 14; format: cell-based; details: read-out: Minimal Inhibitory Concentration(MIC)
Experimental: as §1, §2, §3
14. Pseudomonas aeruginosa 1771

Escherichia coli DC 0 = test: MIC, standard strain 8; format: cell-based; details: DC0, E. coli DC 0, two-fold dilution, Muller Hinton agar, 10^7 CFU/ml, 37° C., 18 hours, read-out: Minimal Inhibitory Concentration(MIC)
Experimental: as §1, §2, §4

[5] = test system: Staphylococcus aureus 503; test: MIC, standard strain 6; format: cell-based; details: read-out: Minimal Inhibitory Concentration(MIC)
Experimental: as §1, §2, §3
6. Staphylococcus aureus 503

[6] = test system: Staphylococcus aureus SG 511; test: MIC, standard strain 4; format: cell-based; details: SG511, 18 h, read-out: Minimal Inhibitory Concentration(MIC)
Experimental: as §1, §2, §3
4. Staphylococcus aureus SG 511

[7] = test system: Pseudomonas aeruginosa 1771M; test: MIC, standard strain 15; format: cell-based; details: 18 h, read-out: Minimal Inhibitory Concentration(MIC)
Experimental: as §1, §2, §3
15. Pseudomonas aeruginosa 1771M

[8] = test system: Pseudomonas aeruginosa 1592 E; test: MIC, standard strain 13; format: cell-based; details: read-out: Minimal Inhibitory Concentration(MIC)
Experimental: as §1, §2, §3
13. Pseudomonas aeruginosa 1592 E

[9] = test system: Staphylococcus aureus 285; test: MIC, standard strain 5; format: cell-based; details: read-out: Minimal Inhibitory Concentration(MIC)
Experimental: as §1, §2, §3
5. Staphylococcus aureus 285

Escherichia coli 0 55 = test: MIC, standard strain 7; format: cell-based; details: 055, E. coli 0 55, two-fold dilution, Muller Hinton agar, 10^7 CFU/ml, 37° C., 18 hours, read-out: Minimal Inhibitory Concentration(MIC)
Experimental: as §1, §2, §4

[10] = test system: Klebsiella aerogenes 1552 E; test: MIC, standard strain 18; format: cell-based; details: read-out: Minimal Inhibitory Concentration(MIC)
Experimental: as §1, §2, §3
18. Klebsiella aerogenes 1552 E

acute toxicity test = details: in vivo; acute toxicity, intravenous injection
MRSA(Yonsei Univ.) = test: MIC, clinically separated strains; format: cell-based
Experimental: as §2

[11] = test system: Enterobacter cloacae 1321 E; test: MIC, standard strain 20; format: cell-based; details: read-out: Minimal Inhibitory Concentration(MIC)
Experimental: as §1, §2, §3
20. Enterobacter cloacae 1321 E

[12] = test system: Pseudomonas aeruginosa 9.027; test: MIC, standard strain 12; format: cell-based; details: read-out: Minimal Inhibitory Concentration(MIC)
Experimental: as §1, §2, §3
12. Pseudomonas aeruginosa 9.027

Salmonella typhimurium = test: MIC, standard strain 16; format: cell-based; details: Salmonella enterica, read-out: Minimal Inhibitory Concentration(MIC)
Experimental: as §1, §2, §3
16. Salmonella typhimurium

Escherichia coli DC 2 = test: MIC, standard strain 9; format: cell-based; details: DC2, E. coli DC 2, two-fold dilution, Muller Hinton agar, 10^7 CFU/ml, 37° C., 18 hours, read-out: Minimal Inhibitory Concentration(MIC)
Experimental: as §1, §2, §4

Staphylococcus = details: compared with DQ-2556; cited from earlier work
Pseudomonas = details: compared with DQ-2556 or ceftazidime; cited from earlier work

CO/N=C(\C(=O)N[C@@H]1C(=O)N2C(C(=O)[O-])=C(C[n+]3ccc(C(N)=S)c4c3CCC4)CS[C@H]12)c1csc(N)n1 [Example 5, 7-β-[(Z)-2-(2-aminothiazol-4-yl)-2-methoxyiminoacetamido]-3-[(2,3-cyclopenteno-4-thiocarbamoyl-1-pyridinium)methyl]-3-cephem-4-carboxylate]
MIC ([1]; A77, S. pyogenes A 77, two-fold dilution, Muller Hinton agar, 10^7 CFU/ml, 37° C., 18 hours): 2 µg/mL (≈ 3.49 µM)
MIC (Escherichia coli 1507 E; E. coli 1507 E, two-fold dilution, Muller Hinton agar, 10^7 CFU/ml, 37° C., 18 hours): 98 µg/mL (≈ 171 µM)
MIC (Streptococcus faecium 8b; S. faecium 8b, two-fold dilution, Muller Hinton agar, 10^7 CFU/ml, 37° C., 18 hours): 12500 µg/mL (≈ 21800 µM)
MIC [2]: 4 µg/mL (≈ 6.97 µM)
MIC (Escherichia coli TEM): 98 µg/mL (≈ 171 µM)
MIC [3]: 6250 µg/mL (≈ 10900 µM)
MIC ([4]; Pseudomonas aeruginosa, P. aeruginosa 1771, two-fold dilution, Muller Hinton agar, 10^7 CFU/ml, 37° C., 18 hours): 1560 µg/mL (≈ 2720 µM)
MIC (Escherichia coli DC 0): 98 µg/mL (≈ 171 µM)
MIC ([5]; Staphylococcus aureus, S. aureus 503, two-fold dilution, Muller Hinton agar, 10^7 CFU/ml, 37° C., 18 hours): 391 µg/mL (≈ 682 µM)
MIC [6]: 781 µg/mL (≈ 1360 µM)
MIC [7]: 391 µg/mL (≈ 682 µM)
MIC ([8]; P. aeruginosa 1592 E, two-fold dilution, Muller Hinton agar, 10^7 CFU/ml, 37° C., 18 hours): 3120 µg/mL (≈ 5450 µM)
MIC ([9]; Staphylococcus aureus, S. aureus 285, two-fold dilution, Muller Hinton agar, 10^7 CFU/ml, 37° C., 18 hours): 1560 µg/mL (≈ 2720 µM)
MIC (Escherichia coli 0 55): 49 µg/mL (≈ 85.4 µM)
MIC ([10]; K. aerogenes 1552 E, two-fold dilution, Muller Hinton agar, 10^7 CFU/ml, 37° C., 18 hours): 49 µg/mL (≈ 85.4 µM)
LD50 (acute toxicity test): > 3000 mg/kg
antibiotic activities against MRSA(Yonsei Univ.), in words (MRSA(Yonsei Univ.)): unexpectedly potent antibiotic activities
MIC ([11]; E. cloacae 1321 E, two-fold dilution, Muller Hinton agar, 10^7 CFU/ml, 37° C., 18 hours): 13 µg/mL (≈ 22.7 µM)
MIC ([12]; Pseudomonas aeruginosa, P. aeruginosa 9.027, two-fold dilution, Muller Hinton agar, 10^7 CFU/ml, 37° C., 18 hours): 6250 µg/mL (≈ 10900 µM)
MIC (Salmonella typhimurium; S. typhimurium, two-fold dilution, Muller Hinton agar, 10^7 CFU/ml, 37° C., 18 hours): 49 µg/mL (≈ 85.4 µM)
MIC (Escherichia coli DC 2): 25 µg/mL (≈ 43.6 µM)

CC(C)(O/N=C(\C(=O)N[C@@H]1C(=O)N2C(C(=O)[O-])=C(C[n+]3ccccc3)CS[C@H]12)c1csc(N)n1)C(=O)O [ceftazidime, reference compound]
MIC ([1]; A77, 18 h): 49 µg/mL (≈ 89.6 µM)
MIC (Escherichia coli 1507 E; 1507E, 18 h): 195 µg/mL (≈ 357 µM)
MIC (Streptococcus faecium 8b; 8B, 18 h): 100000 µg/mL (≈ 183000 µM)
MIC [2]: 98 µg/mL (≈ 179 µM)
MIC (Escherichia coli TEM): 195 µg/mL (≈ 357 µM)
MIC [3]: 100000 µg/mL (≈ 183000 µM)
MIC ([4]; Pseudomonas aeruginosa, 1771, 18 h): 391 µg/mL (≈ 715 µM)
MIC (Escherichia coli DC 0): 98 µg/mL (≈ 179 µM)
MIC ([5]; Staphylococcus aureus, 503, 18 h): 98 µg/mL (≈ 179 µM)
MIC [6]: 12500 µg/mL (≈ 22900 µM)
MIC [7]: 98 µg/mL (≈ 179 µM)
MIC ([8]; 1592E, 18 h): 781 µg/mL (≈ 1430 µM)
MIC ([9]; Staphylococcus aureus, 285, 18 h): 12500 µg/mL (≈ 22900 µM)
MIC (Escherichia coli 0 55): 98 µg/mL (≈ 179 µM)
MIC ([10]; 1552E, 18 h): 98 µg/mL (≈ 179 µM)
activity against Staphylococcus, in words (Staphylococcus): relatively low activity against Staphylococcus
MIC ([11]; 1321E, 18 h): 25 µg/mL (≈ 45.7 µM)
MIC ([12]; Pseudomonas aeruginosa, 9.027, 18 h): 3120 µg/mL (≈ 5720 µM)
activity against Pseudomonas, in words (Pseudomonas): higher activity against Pseudomonas
MIC (Salmonella typhimurium; TYPHIMURIUM, 18 h): 195 µg/mL (≈ 357 µM)
MIC (Escherichia coli DC 2): 98 µg/mL (≈ 179 µM)
